According to BindingDB's records for doi:10.1016/j.bmcl.2009.10.054 (AstraZeneca, 2009):

Test: Inhibition of erythropoietin-stimulated STAT5 expressed in human U2OS cells

Cc1cc(Nc2nc(N[C@@H](C)c3ncc(F)cn3)c(C#N)nc2C)[nH]n1 [(S)-3-(1-(5-fluoropyrimidin-2-yl)ethylamino)-6-methyl-5-(5-methyl-1H-pyrazol-3-ylamino)pyrazine-2-carbonitrile]
EC50: 40 nM
